Results published in publication PMC5540818 (Chemical biology & drug design, 2017).
Structures can show the parent of a compound that is named as a salt.

Legend:
[1] = tested on: S. aureus infections; conditions: dosed at 20 (DMMA) and 40 (triazolothiadiazole) mg of compound per kg of animal; cited from earlier work
[2] = molecular target: SrtA (Staphylococcus aureus, UniProt Q2FV99); conditions: read-out: SrtA IC50; cited from earlier work
[3] = Solubility in aqueous buffer; assay type: physicochemical
[4] = molecular target: Sa-SrtA (Staphylococcus aureus, UniProt Q2FV99); conditions: read-out: Sa-SrtA IC50; values taken from reference; cited from earlier work
Sa-SrtA, sequence (Q2FV99 60-206): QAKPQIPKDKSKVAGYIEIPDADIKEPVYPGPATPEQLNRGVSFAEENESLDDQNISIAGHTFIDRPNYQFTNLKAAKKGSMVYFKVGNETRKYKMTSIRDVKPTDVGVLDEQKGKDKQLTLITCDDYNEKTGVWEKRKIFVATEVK

SrtA, sequence (Q2FV99 60-206): as above

Row | SMILES | efficacy in treating potentially lethal S. aureus infections in animal models [1] | IC50 [2] [µM] | solubility in aqueous solvent ([3]; aqueous solvent) | IC50 [4] [µM] | solubility ([3]; aqueous buffer)
1 | O=S(=O)([O-])c1ccccc1-c1nn2c(-c3ccncc3)nnc2s1.[Na+] [triazolothiadiazol, 3-(4-pyridinyl)-6-(2-sodiumsulfonatephenyl)[1,2,4]triazolo[3,4-b][1,3,4]thiadiazole] | efficacious | 9.3 |  |  | 
2 | COc1ccc(/C(C#N)=C/c2cc(OC)ccc2OC)cc1 [DMMA, (Z)-3-(2,5-dimethoxyphenyl)-2-(4-methoxyphenyl) acrylonitrile] | efficacious | 9.2 |  |  | 
3 | CCOc1c(S)cnn(-c2ccccc2)c1=O [2-10] |  |  | poorly soluble | 13 ± 1 | 
4 | CCOc1c(S)cnn(-c2ccccc2)c1=O [2-salt, 5-ethoxy-6-oxo-1-phenyl-1,6-dihydropyridazine-4-thiolate] |  |  |  |  | up to 75 mM
